Assay results as given in patent US11666056B2, “Methods and compositions for control of arthropod pests” (GREENLIGHT BIOSCIENCES, INC., priority 2019, dated 2023).

What was measured:
[1] = Measured pH of preservative working solutions and of tested formulations; assay type: physicochemical
Protocol: Separate working solutions of sodium benzoate and potassium sorbate are prepared in citric buffer (pH 5.3) and pH is measured as shown in Table 3.
Five formulations (Table 7) using the citric buffer of Example 1A and the preservatives of Example 1B were tested to determine the stability of the trigger nucleic acid molecule (SEQ ID NO: 1) in a) only sucrose (control); b) sucrose with preservatives; c) sucrose and citric buffer; d) sucrose with equal amounts of each preservative in citric buffer; and e) sucrose with sodium benzoate to potassium sorbate in a 1:0.5 ratio in citric buffer.
Four additional formulations were created to test the ability of sodium benzoate alone to protect a dsRNA from degradation. Sodium benzoate was prepared in a solution with a pH of 4.5.

[2] = citric buffer (pH 5.3)
[3] = preservative 50 mg/mL in citric buffer (pH 5.3)

Compound | pH [1, 3] | pH ([1]; preservative 100 mg/mL in ddH2O) | solubility in citric buffer [2] | pH ([1]; preservative 100 mg/mL in citric buffer)
C/C=C/C=C/C(=O)[O-].[K+] [Potassium Sorbate] | 6.13 | 8.8 | low solubility | 
O=C([O-])c1ccccc1.[Na+] [Sodium Benzoate] | 5.47 |  |  | 5.7
